Molecular target: T1, Tm‐mPPase (Thermotoga maritima membrane pyrophosphatase) (Thermotoga maritima, UniProt Q9S5X0)
T1 construct: gene hppA; recombinant in E. coli C41(DE3), assayed in inverted membrane vesicles; homodimer, subunit mass 77 kDa
T1 sequence (Q9S5X0 1-726): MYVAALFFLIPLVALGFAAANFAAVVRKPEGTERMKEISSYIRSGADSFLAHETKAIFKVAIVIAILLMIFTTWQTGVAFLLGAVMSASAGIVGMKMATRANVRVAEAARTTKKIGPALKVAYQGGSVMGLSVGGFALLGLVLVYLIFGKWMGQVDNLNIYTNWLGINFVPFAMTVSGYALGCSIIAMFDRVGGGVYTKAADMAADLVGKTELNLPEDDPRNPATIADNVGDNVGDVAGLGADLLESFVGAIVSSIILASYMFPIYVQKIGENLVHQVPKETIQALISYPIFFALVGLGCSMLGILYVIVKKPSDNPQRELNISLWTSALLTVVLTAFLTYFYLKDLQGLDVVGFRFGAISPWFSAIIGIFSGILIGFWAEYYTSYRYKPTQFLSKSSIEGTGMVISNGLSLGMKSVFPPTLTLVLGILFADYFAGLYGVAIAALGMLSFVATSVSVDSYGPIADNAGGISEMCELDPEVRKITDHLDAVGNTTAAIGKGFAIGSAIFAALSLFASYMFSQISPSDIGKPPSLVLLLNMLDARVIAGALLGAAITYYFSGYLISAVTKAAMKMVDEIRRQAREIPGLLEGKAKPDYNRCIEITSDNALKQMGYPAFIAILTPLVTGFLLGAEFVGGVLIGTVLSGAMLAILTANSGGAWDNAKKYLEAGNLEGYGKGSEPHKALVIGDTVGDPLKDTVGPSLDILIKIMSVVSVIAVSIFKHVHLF
Experiment: inhibition of PPi hydrolysis, active-site titration in inverted membrane vesicles, Pi analyzer
Type: biochemical
Conditions: 25°C, pH 7.2, 5 mM MgCl2, 100 mM NaCl, no K+, 8 μM PPi; competitive; tight-binding fit; apparent, not corrected for substrate; read-out: K i ^app

SMILES: NC(P(=O)(O)O)P(=O)(O)O [AMDP]
- Ki: 5 ± 2 nM

From article PMC9405524, “Pre‐steady‐state kinetics and solvent isotope effects support the “billiard‐type” transport mechanism in Na ^+‐translocating pyrophosphatase” (Protein Science : A Publication of the Protein Society, 2022)
